Test results as given in patent US20140336182A1, “Aurora Kinase Modulators and Method of Use” (Amgen Inc., priority 2013, published 2014).

tested on: HeLa cells; test: HeLa cell 24 hr ploidy assay (DNA content); assay type: cell-based; details: Homo sapiens, HeLa, 4N ploidy, average, read-out: 24h_4NPloidy EC50_IP (uM Avg)
Outline: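 HeLa cells (1×10^4/well, MEM+10% FBS) cultured 24 h, treated with serially diluted compounds (0.25% DMSO final), then fixed, permeabilized and stained with Hoechst 33342 (0.5 ug/ml). Imaging quantified % 4N and >4N cells; EC50 IP and EC50 transit derived from dose curves.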

Going from `COc1cc2nccc(Oc3ccc(Nc4nnc(-c5cc(C)ccn5)c5ccccc45)cc3)c2cn1` [compound 121] to `COc1cc2nccc(Oc3ccc(Nc4nnc(-c5ccccc5)c5ccccc45)cc3)c2cc1OC` [compound 90], the EC50 falls from 0.132 µM to 0.013 µM (10-fold).

Going from `COc1ccc(-c2nnc(Nc3ccc(Oc4ccnc5cc(OC)cnc45)cc3)c3ccccc23)cc1` [Example 37, N-(4-(7-methoxy-1,5-naphthyridin-4-yloxy)phenyl)-4-(4-methoxyphenyl)phthalazin-1-amine] to `COc1cnc2c(Oc3cnc(Nc4nnc(-c5ccccc5)c5ccccc45)nc3)ccnc2c1` [compound 84], the EC50 rises from 0.052 µM to 0.485 µM (9.3-fold).

same assay, conditions: Homo sapiens, HeLa, HeLa cells, 4N ploidy, average, read-out: 24h_4NPloidy EC50_IP (uM Avg)

Going from `COc1cnc2c(Oc3ccc(Nc4nnc(-c5ccc6sc(C)nc6c5)c5ccccc45)cc3)ccnc2c1` [compound 195, 4-(2-methyl-1,3-benzothiazol-5-yl)-N-(4-((7-(methyloxy)-1,5-naphthyridin-4-yl)oxy)phenyl)-1-phthalazinamine] to `COc1cnc2c(Oc3ccc(Nc4nnc(-c5ccc(Cl)cc5)c5ccccc45)cc3F)ccnc2c1` [compound 284], the EC50 falls from 0.197 µM to 0.011 µM (18-fold).

Going from `COc1cnc2c(Sc3ccc(Nc4nnc(OC)c5ccccc45)cc3)ccnc2c1` [Example 402, 4-Methoxy-N-(4-(7-methoxy-1,5-naphthyridin-4-ylthio)phenyl)phthalazin-1-amine] to `COc1cnc2c(Sc3ccc(Nc4nnc(-c5ccc6c(c5)OCO6)c5ccccc45)cc3)ccnc2c1` [compound 530], the EC50 falls from 0.066 µM to 0.001 µM (66-fold). The second is the more potent here.

Going from `COc1cccc(-c2nnc(Nc3ccc(Oc4ccnc5ccccc45)c(F)c3)c3ccccc23)n1` [compound 186] to `COc1ccc2nccc(Oc3ccc(Nc4nnc(-c5ccccc5)c5ccccc45)cc3)c2c1` [compound 238], the EC50 rises from 0.031 µM to 0.053 µM (1.7-fold). The first is the more potent here.

`Clc1ccc(-c2nnc(Nc3ccc(Sc4ccnc5ccoc45)cc3)c3ccccc23)nc1` [Example 391, 4-(5-Chloropyridin-2-yl)-N-(4-(furo[3,2-b]pyridin-7-ylthio)phenyl)phthalazin-1-amine] and `Cc1ccc(-c2nnc(Nc3ccc(Sc4ccnc5ccoc45)cc3)c3ccccc23)nc1` [compound 482] are within 1.5-fold of each other in EC50: 0.032 µM for the first, 0.036 µM for the second.

First: c1ccc(-c2nnc(Nc3ccc(Sc4ccnc5ccncc45)cc3)c3ccccc23)cc1 [compound 425]
Second: Clc1ccc(-c2nnc(Nc3ccc(Sc4ccnc5ccncc45)cc3)c3ccccc23)cc1 [compound 426]
The EC50 of the first is 3-fold higher: 0.024 µM for the first, 0.008 µM for the second. The second is the more potent here.

Compared with `Clc1ccc(-c2nnc(Nc3ccc(Oc4ccnc5cccnc45)cc3)c3ccccc23)cc1` [compound 448], `N#Cc1cnc2c(Oc3ccc(Nc4nnc(-c5ccc(Cl)cc5)c5ccccc45)cc3)ccnc2c1` [compound 265, 8-((4-((4-(4-chlorophenyl)-1-phthalazinyl)amino)phenyl)oxy)-1,5-naphthyridine-3-carbonitrile] is 3.5-fold higher in EC50: 0.016 µM for the first, 0.056 µM for the second.

First: COc1cnc2c(Sc3ccc(Nc4nnc(N5CCN6CCCC[C@@H]6C5)c5ccccc45)cc3)ccnc2c1 [compound 580]
Second: COc1cnc2c(Sc3ccc(Nc4nnc(-c5ccc6occc6c5)c5ccccc45)cc3)ccnc2c1 [compound 501]
The EC50 of the first is 2.8-fold lower: 0.005 µM for the first, 0.014 µM for the second. The first is the more potent here.

First: Cc1cc2nccc(Sc3ccc(Nc4nnc(-c5ccc(C)c(N)c5)c5ccccc45)cc3)c2o1 [compound 492]
Second: c1ccc(-c2nnc(Nc3ccc(Sc4ccnc5[nH]ccc45)cc3)c3ccccc23)cc1 [compound 329]
The EC50 of the first is 2.7-fold lower: 0.021 µM for the first, 0.057 µM for the second. The first is the more potent here.

First: COc1cc(OC)c2c(Oc3ccc(Nc4nnc(-c5cc(C)cs5)c5ccccc45)cc3)ncnc2c1 [compound 573]
Second: CC(=O)Nc1ccc2nccc(Oc3ccc(Nc4nnc(-c5ccccc5)c5ccccc45)cc3)c2c1 [Example 43, N-(4-(4-(4-Phenylphthalazin-1-ylamino)phenoxy)quinolin-6-yl)acetamide]
The EC50 of the first is 2.3-fold lower: 0.011 µM for the first, 0.025 µM for the second.

Work on `c1ccc(-c2nnc(Nc3ccc(Oc4ccnc5cc(N6CCOCC6)ccc45)cc3)c3ccccc23)cc1` [Example 42, N-(4-(7-Morpholinoquinolin-4-yloxy)phenyl)-4-phenylphthalazin-1-amine] yielded an EC50 of 0.007 µM.

same assay, conditions: Homo sapiens, HeLa, HeLa cells, average, read-out: 24h_4NPloidy EC50_IP (uM Avg)

Molecule `COc1ccc2c(C(C)c3ccc(Nc4nnc(-c5ccc(Cl)cc5)c5ccccc45)cc3)ccnc2c1` (stereo not drawn) [compound 613] has an EC50 of over 1.2 µM.
